Reference: patent US12491233B2, “Pharmaceutical composition, for preventing or treating Charcot-Marie-Tooth disorder, comprising mesenchymal stem cells or insulin secreted by mesenchymal stem cells” (SAMSUNG LIFE PUBLIC WELFARE FOUNDATION, priority 2020, dated 2025)

What was measured:
Schwann cells [1] = assay: CCK-8 cell proliferation of insulin-treated Schwann cells; assay type: cell-based; details: for CCK-8: relative to 0 nM = 1
Protocol: (§1) The cultured Schwann cells were treated with insulin at 0, 1, 10, 50, 100, 200, 500, or 1000 nM, and then the degree of cell proliferation was determined by measurement of the absorbance at 450 nm using a spectrophotometer by using the CCK-8 (Dojindo) test method. ATP was measured using the CellTiter-Glo Luminescent Cell Viability Assay (Promega Corporation), and finally, 5-bromo-2′-deoxyuridine (BrdU) bound during DNA synthesis in cells was identified. In this test method, analysis was performed using Cell Proliferation ELISA, BrdU (colorimetric) (Roche). BrdU was added to the cells, followed by incubation for 24 hours, and then the cells were fixed, followed by DNA denaturation, and then treated with Anti-BrdU antibody. The cells were incubated with TMB substrate by using HRP-linked secondary antibody, and the absorbance at 370 nm was measured in a spectrophotometer.

Schwann cells [2] = assay: ATP measurement, CellTiter-Glo Luminescent Cell Viability Assay; assay type: cell-based; details: relative to 0 nM = 1
Protocol: as §1

Schwann cells [3] = assay: BrdU Cell Proliferation ELISA (colorimetric); assay type: cell-based; details: relative to 0 nM = 1
Protocol: as §1

ERK and Akt pathways = assay: Western blot of P-ERK1/2, ERK1/2, P-AKT, AKT in insulin-treated Schwann cells; assay type: cell-based; details: 100 nM insulin, 24 hours
Protocol: After the cultured Schwann cells were treated with 100 nM insulin protein, the cells were harvested after 24 hours, and then the pellets were added in RIPA buffer, and the cells were disrupted using a sonicator and then centrifuged at 13,000 rpm at 4° C. for 15 minutes. Only the supernatant was subjected to protein quantification, and then 30 μg of proteins was loaded onto SDS-PAGE gel. Thereafter, the gel loaded on PVDF was transferred and then blocked with 5% skim milk for 1 hour, and then P-ERK1/2, ERK1/2, P-AKT, AKT, and β-actin antibodies were attached thereto at 4° C. for 24 hours. After the HRP-linked secondary antibody reaction and the washing process were performed, the bands of proteins were checked by using ECL solution.

[4] = system: Charcot-Marie-Tooth disease mice; assay: Rotarod testing in Charcot-Marie-Tooth disease mice; assay type: in vivo
Excerpt: 5-Week-old Charcot-Marie-Tooth disease mice were intravenously administered with 12 U/kg insulin and, after two weeks, examined for behavioral performance increase through rotarod testing as in Example 5.

[5] = system: Charcot-Marie-Tooth disease mice; assay: Grip strength testing in Charcot-Marie-Tooth disease mice; assay type: in vivo; details: 5-week-old CMT mice, 12 U/kg intravenously, after two weeks; WT 8.9, sham 6.2
Excerpt: 5-Week-old Charcot-Marie-Tooth disease mice were intravenously administered with 12 U/kg insulin and, after two weeks, examined for behavioral performance increase through grip strength testing as in Example 5.

PMP22 = PMP22 gene expression in sciatic nerve tissue by qRT-PCR; assay type: in vivo, mice
Protocol: In addition, it was examined using qRT-PCR analysis whether specific genes observable in each type of differentiated cells were expressed in differentiated adipocytes and chondrocytes. Non-differentiated cells and differentiated cells were harvested and the total RNA was extracted from the cell pellets using TRIZOL. The pellets were completely dissolved in 1 mL of TRIZOL, and then 0.2 mL of chloroform was added thereto, followed by shaking for 15 seconds and then standing at room temperature for 3 minutes. The resultant product was then separated into the bottom layer phenol-chloroform, the intermediate layer, and the upper layer colorless aqueous solution by centrifugation at 13,000 rpm and 4° C. for 15 minutes, and of these, only the upper layer colorless aqueous solution was separately collected and transferred into a new tube. After 0.5 mL of isopropyl alcohol was added to the tube and then vigorously mixed, the mixture was left at room temperature for 5 minutes. The resultant solution was again centrifuged at 13,000 rpm and 4° C. for 10 minutes, and the supernatant was discarded. Thereafter, 75% ethanol was added to pellets and again vigorously mixed, followed by centrifugation. The upper layer was discarded, and RNA pellets were dried for 5-10 minutes and dissolved in RNase-free water. […]

[6] = system: Charcot-Marie-Tooth disease mice; assay: Myelination of sciatic nerve tissue by transmission electron microscope; assay type: in vivo
Excerpt: 5-Week-old Charcot-Marie-Tooth disease mice were intravenously administered with 12 U/kg insulin, and after two weeks, the sciatic nerve tissue was collected and observed by the same method as in the histological analysis through a transmission electron microscope in Example 7, and the results are shown in FIGS. 8A to 8C and Tables 12 and 13.

MPZ [7] = assay: MPZ in sciatic nerve tissue by confocal microscope; assay type: in vivo, mice; details: 12 U/kg intravenously, after two weeks, WT = 1, sham 0.20
Excerpt: 5-Week-old Charcot-Marie-Tooth disease mice were intravenously administered with 12 U/kg insulin, and after two weeks, the sciatic nerve tissue was collected and observed through a confocal microscope in Example 7, and the results are shown in FIG. 8D and Table 14.

MPZ [8] = assay: MPZ expression level in sciatic nerve tissue by western blotting; assay type: in vivo, mice; details: 12 U/kg intravenously, after two weeks, WT = 100, sham 3.84
Protocol: 5-Week-old Charcot-Marie-Tooth disease mice were intravenously administered with 12 U/kg insulin, and after two weeks, the sciatic nerve tissue was collected and then the MPZ expression level was determined using MPZ antibody by the same method as in protein expression analysis through western blotting in Example 3, and the results are shown in FIGS. 8F and 8G and Table 15.

Dystrophin = assay: Myogenesis of gastrocnemius muscle tissue, dystrophin fluorescent antibody; assay type: in vivo, mice
Protocol: 5-Week-old Charcot-Marie-Tooth disease mice were intravenously administered with 12 U/kg insulin, and after two weeks, the gastrocnemius muscle tissue was collected. Then, the increase in myogenesis was measured using the dystrophin antibody by the same method as in protein expression analysis using a fluorescent antibody in Example 7, and the results are shown in FIGS. 9A and 9B and Table 16.

[9] = system: Charcot-Marie-Tooth disease mice; assay: MRI of gastrocnemius muscle tissue, cross-sectional area and volume; assay type: in vivo; details: 12 U/kg intravenously, after two weeks; for CSA: MRI; for Volume: from cross-sectional area
Protocol: 5-Week-old Charcot-Marie-Tooth disease mice were intravenously administered with 12 U/kg insulin and, after two weeks, the gastrocnemius muscle tissue was observed by the MRI system. In addition, the cross-sectional area of the muscle tissue was measured to obtain the volume of the muscle tissue, and the results are shown in FIG. 9E and Table 18.

In the case of insulin, the “optimum concentration for increasing the proliferation capacity of Schwann cells” value (Schwann cells [1]; from CCK-8, ATP and BrdU tests, 0-1000 nM) is reported as 100 nM, the CCK-8 (Schwann cells [1]; insulin 1 nM) is reported as 1.03 and the CCK-8 (Schwann cells [1]; insulin 10 nM) is reported as 1.09. For the same substance, the CCK-8 (Schwann cells [1]; insulin 50 nM) was 1.16, the CCK-8 (Schwann cells [1]; insulin 100 nM) was 1.18 and the CCK-8 (Schwann cells [1]; insulin 200 nM) was 1.19. The CCK-8 (Schwann cells [1]; insulin 500 nM) was 1.21, the CCK-8 (Schwann cells [1]; insulin 1000 nM) was 1.21 and the ATP (Schwann cells [2]; insulin 1 nM) was 1.08. It also gave an ATP (Schwann cells [2]; insulin 10 nM) of 1.13, an ATP (Schwann cells [2]; insulin 50 nM) of 1.20 and an ATP (Schwann cells [2]; insulin 100 nM) of 1.23. For the same substance, the ATP (Schwann cells [2]; insulin 200 nM) was 1.18, the ATP (Schwann cells [2]; insulin 500 nM) was 1.22 and the ATP (Schwann cells [2]; insulin 1000 nM) was 1.06. It also gave a BrdU (Schwann cells [3]; insulin 1 nM) of 1.13, a BrdU (Schwann cells [3]; insulin 10 nM) of 1.32 and a BrdU (Schwann cells [3]; insulin 50 nM) of 1.39. It also gave a BrdU (Schwann cells [3]; insulin 100 nM) of 1.51, a BrdU (Schwann cells [3]; insulin 200 nM) of 1.50 and a BrdU (Schwann cells [3]; insulin 500 nM) of 1.36. The BrdU (Schwann cells [3]; insulin 1000 nM) was 1.44, the “activation of proliferation potency of Schwann cells through ERK and Akt pathways” value (ERK and Akt pathways) was “activated the proliferation potency of Schwann cells through ERK and Akt pathways” and the Rotarod ([4]; 5-week-old CMT mice, 12 U/kg intravenously, after two weeks, WT 112.3, sham 27.8) was 67.9. The “behavioral performance of the mice” value ([4]; rotarod and grip strength, in words) was “increased the behavioral performance”, the “Grip Strength” value [5] was 7.7 and the PMP22 expression levels (PMP22; in words) was “reduced the PMP22 expression levels”. The PMP22 (PMP22; sciatic nerve, 12 U/kg intravenously, after two weeks, WT = 1, sham 1305.36) was 986.69, the myelination ([6]; in words, FIGS. 8A to 8G) was “increased myelination” and the myelination ([6]; sciatic nerve, TEM, 12 U/kg intravenously, after two weeks, WT = 100, sham 13.59) was 82.99. The Thickness ([6]; thickness of myelination, sciatic nerve, TEM, 12 U/kg intravenously, after two weeks, WT 3.32, sham 0.67) was 2.53, the MPZ (MPZ [7]) was 0.69 and the MPZ (MPZ [8]) was 44.12. The Dystrophin (Dystrophin; gastrocnemius muscle, 12 U/kg intravenously, after two weeks, WT = 1, sham 0.27) was 0.94, the myogenesis (Dystrophin; in words, FIGS. 9A to 9E) was “increased myogenesis” and the CSA ([9]; Left gastrocnemius muscle, sham 0.302) was 0.343. For the same substance, the Volume ([9]; Left gastrocnemius muscle, sham 2.533) was 2.879, the CSA ([9]; Right gastrocnemius muscle, sham 0.290) was 0.323 and the Volume ([9]; Right gastrocnemius muscle, sham 2.438) was 2.712.
